In US20050101621A1, “Method for rapid detoxification of addiction” (priority 2003, published 2005):

Assay: general anesthesia assisted opiate detoxification with high-rate opiod antagonist infusion
Assay type: in vivo, patient
Source text: Treatment begins by providing the patient with Valium, Xanax and Trazedone, which are taken orally. The patient's vitals are then monitored using such equipment as an electrocardiogram, pulse oxymeter, blood pressure monitor, ETCO2 monitor, oxygen sensor, and tidol volume monitor. An intravenous (IV) line is then set-up and general anesthesia is induced, preferably using Valium, Propofol and Mivacron. These anesthetizing agents are suited to facilitate endotracheal (ET) intubation.
Once the anesthesia takes effect, an endotracheal tube is appropriately placed through the patient's oral cavity and the patient retrieves to spontaneous respirations over the next few minutes. A Precedex infusion is then started, preferably at […], to achieve cardiovascular stability. Next antiemetics and antiperistaltic agents are then administered. In accordance with the preferred method the antiemetics and antiperistaltic agents comprise dexamethazone somatostatin and robinul; other similar agents can be employed. An antihistamine agent, e.g., Benedryl, is then given.
Next, a Naloxone (or its generic counterpart Narcane) infusion is started at rate of 0.6 mg/kg/hr for one hour, i.e., 0.6 mg/hr per unit of the patient's metric weight. In accordance with the present invention, Naloxone is administered at rate greater than 1.5 mg/hr. […]

C=CCN1CC[C@]23c4c5ccc(O)c4O[C@H]2C(=O)CC[C@@]3(O)[C@H]1C5 [Naloxone]
medical risk to the patient of high-rate Naloxone administration (infusion 0.6 mg/kg/hr for one hour (30 mg/hr for 50 kg, approximately 50 mg/hr for 75 kg), patient anesthetized): does not expose a patient to a severe medical risk | risk to the patient of Naloxone administration (rate of 1.4 mg/kg/hr): without exposing the patient to unnecessary risks
